The target in assay [1] is T1, Dimer of Gag-Pol polyprotein [489-587] (Human immunodeficiency virus 1, UniProt P12497).
T1 construct: 489-587
Nature of the assay: Protease Inhibition Assay. As to conditions: pH 6.25; 37 °C. The protocol: (§1) Enzymatic activity was measured by following cleavage of the substrate H-Lys-Ala-Arg-Val-Leu-pNph-Glu-Ala-Nle-NH2. Products of the cleavage reaction were quantified by HPLC detection.

The target in assay [2] is T2, Dimer of Gag-Pol polyprotein [514-612] (Human immunodeficiency virus 2, UniProt P04584).
T2 construct: 514-612
T2 sequence (P04584 whole entry): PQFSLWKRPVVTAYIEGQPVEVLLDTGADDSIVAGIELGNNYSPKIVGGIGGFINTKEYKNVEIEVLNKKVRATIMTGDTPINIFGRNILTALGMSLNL
Nature of the assay: Protease Inhibition Assay. As to conditions: pH 4.7; 37 °C. The procedure: as §1

SMILES strings stand for the structures.

`CC(C)C1NC(=O)[C@@H](C(O)[C@H](Cc2ccccc2)NC(=O)OC(C)(C)C)NCc2cccc(c2)OCCOCCOCCNC1=O` (stereo partly drawn) [tert-butyl N-[(1S,2S)-1-[(13R,16R)-12,15-dioxo-13-(propan-2-yl)-2,5,8-trioxa-11,14,17-triazabicyclo[17.3.1]tricosa-1(22),19(23),20-trien-16-yl]-1-hydroxy-3-phenylpropan-2-yl]carbamate] registered a Ki in assay [1] of 208 nM. The same measure, in the same setting: next, `CC(C)C1NC(=O)[C@@H](C(O)[C@H](Cc2ccccc2)NC(=O)[C@@H](NC(=O)OCc2ccccc2)C(C)C)NCc2ccc(cc2)OCCCCNC1=O` (stereo partly drawn) [benzyl N-[(1S)-1-{[(1S,2S)-1-[(9R,12R)-8,11-dioxo-9-(propan-2-yl)-2-oxa-7,10,13-triazabicyclo[13.2.2]nonadeca-1(17),15,18-trien-12-yl]-1-hydroxy-3-phenylpropan-2-yl]carbamoyl}-2-methylpropyl]carbamate]: 6.6 nM; `COc1ccc(CN[C@@H](C(=O)NC(C(=O)NCc2nc3ccccc3[nH]2)C(C)C)C(O)[C@H](Cc2ccccc2)NC(=O)[C@@H](NC(=O)OCc2ccccc2)C(C)C)cc1` (stereo partly drawn) [benzyl N-[(1S)-1-{[(2S,3S,4R)-4-{[(1R)-1-[(1H-1,3-benzodiazol-2-ylmethyl)carbamoyl]-2-methylpropyl]carbamoyl}-3-hydroxy-4-{[(4-methoxyphenyl)methyl]amino}-1-phenylbutan-2-yl]carbamoyl}-2-methylpropyl]carbamate]: 3.4 nM; `CC(C)C1NC(=O)[C@@H](C(O)[C@H](Cc2ccccc2)NC(=O)OC2CCOC2)NCc2ccc(cc2)OCCOCCNC1=O` (stereo partly drawn) [(3R)-oxolan-3-yl N-[(1S,2S)-1-[(10R,13R)-9,12-dioxo-10-(propan-2-yl)-2,5-dioxa-8,11,14-triazabicyclo[14.2.2]icosa-1(18),16,19-trien-13-yl]-1-hydroxy-3-phenylpropan-2-yl]carbamate]: 8.2 nM. Take `CC(C)C1NC(=O)[C@@H](C(O)[C@H](Cc2ccccc2)NC(=O)[C@@H](NC(=O)OCc2ccccc2)C(C)(C)C)NCc2ccc(cc2)OCCOCCNC1=O` (stereo partly drawn) [benzyl N-[(1S)-1-{[(1S,2S)-1-[(10R,13R)-9,12-dioxo-10-(propan-2-yl)-2,5-dioxa-8,11,14-triazabicyclo[14.2.2]icosa-1(18),16,19-trien-13-yl]-1-hydroxy-3-phenylpropan-2-yl]carbamoyl}-2,2-dimethylpropyl]carbamate]: the results for the Ki in assay [2] and in assay [1] were 16 nM and 8 nM, respectively. Taken in the same sequence, the figures for `CC(C)C1NC(=O)[C@@H](C(O)[C@H](Cc2ccccc2)NC(=O)[C@@H](NC(=O)OCc2ccccc2)C(C)C)NCc2ccc(cc2)OCCOCCOCCNC1=O` (stereo partly drawn) [benzyl N-[(1S)-1-{[(1S,2S)-1-[(13R,16R)-12,15-dioxo-13-(propan-2-yl)-2,5,8-trioxa-11,14,17-triazabicyclo[17.2.2]tricosa-1(21),19,22-trien-16-yl]-1-hydroxy-3-phenylpropan-2-yl]carbamoyl}-2-methylpropyl]carbamate] were 27 nM and 6.9 nM. In assay [1], `CC(C)C1NC(=O)[C@@H](C(O)[C@H](Cc2ccccc2)NC(=O)OC(C)(C)C)NCc2ccc(cc2)OCCOCCOCCOCCNC1=O` (stereo partly drawn) [tert-butyl N-[(1S,2S)-1-[(16R,19R)-15,18-dioxo-16-(propan-2-yl)-2,5,8,11-tetraoxa-14,17,20-triazabicyclo[20.2.2]hexacosa-1(24),22,25-trien-19-yl]-1-hydroxy-3-phenylpropan-2-yl]carbamate] registered a Ki of 23.2 nM.

In assay [1], `CC(C)C1NC(=O)[C@@H](C(O)[C@H](Cc2ccccc2)NC(=O)OC(C)(C)C)NCc2ccc(cc2)OCCCCNC1=O` (stereo partly drawn) [tert-butyl N-[(1S,2S)-1-[(9R,12R)-8,11-dioxo-9-(propan-2-yl)-2-oxa-7,10,13-triazabicyclo[13.2.2]nonadeca-1(17),15,18-trien-12-yl]-1-hydroxy-3-phenylpropan-2-yl]carbamate] yielded a Ki of 17 nM. `CC(C)C1NC(=O)[C@@H](C(O)[C@H](Cc2ccccc2)NC(=O)[C@@H](NC(=O)CSc2nncn2C)C(C)(C)C)NCc2ccc(cc2)OCCOCCNC1=O` (stereo partly drawn) [(2S)-N-[(1S,2S)-1-[(10R,13R)-9,12-dioxo-10-(propan-2-yl)-2,5-dioxa-8,11,14-triazabicyclo[14.2.2]icosa-1(18),16,19-trien-13-yl]-1-hydroxy-3-phenylpropan-2-yl]-3,3-dimethyl-2-{2-[(4-methyl-4H-1,2,4-triazol-3-yl)sulfanyl]acetamido}butanamide] yielded a Ki in assay [1] of 11.1 nM. In assay [1], `CC(C)C1NC(=O)[C@@H](C(O)[C@H](Cc2ccccc2)NC(=O)OC(C)(C)C)NCc2ccc(cc2)OCCOCCNC1=O` (stereo partly drawn) [tert-butyl N-[(1S,2S)-1-[(10R,13R)-9,12-dioxo-10-(propan-2-yl)-2,5-dioxa-8,11,14-triazabicyclo[14.2.2]icosa-1(18),16,19-trien-13-yl]-1-hydroxy-3-phenylpropan-2-yl]carbamate] came in with a Ki of 14 nM. `CC(C)C1NC(=O)[C@@H](C(O)[C@H](Cc2ccccc2)NC(=O)[C@@H](NC(=O)OCc2ccccc2)C(C)C)NCc2cccc(c2)OCCOCCOCCNC1=O` (stereo partly drawn) [benzyl N-[(1S)-1-{[(1S,2S)-1-[(13R,16R)-12,15-dioxo-13-(propan-2-yl)-2,5,8-trioxa-11,14,17-triazabicyclo[17.3.1]tricosa-1(22),19(23),20-trien-16-yl]-1-hydroxy-3-phenylpropan-2-yl]carbamoyl}-2-methylpropyl]carbamate] returned a Ki in assay [1] of 7.7 nM. For the compound `COc1ccc(CN[C@@H](C(=O)N[C@H]2c3ccccc3CC2O)C(O)[C@H](Cc2ccccc2)NC(=O)[C@@H](NC(=O)OCc2ccccc2)C(C)(C)C)cc1` (stereo partly drawn) [benzyl N-[(1S)-1-{[(2S,3S,4R)-3-hydroxy-4-{[(1S,2S)-2-hydroxy-2,3-dihydro-1H-inden-1-yl]carbamoyl}-4-{[(4-methoxyphenyl)methyl]amino}-1-phenylbutan-2-yl]carbamoyl}-2,2-dimethylpropyl]carbamate], the Ki in assay [2] came to 50 nM; in assay [1] it was 9.5 nM. In the case of `CC(C)C1NC(=O)[C@@H](C(O)[C@H](Cc2ccccc2)NC(=O)[C@@H](NC(=O)OCc2ccccc2)C(C)C)NCc2ccc(cc2)OCCOCCNC1=O` (stereo partly drawn) [benzyl N-[(1S)-1-{[(1S,2S)-1-[(10R,13R)-9,12-dioxo-10-(propan-2-yl)-2,5-dioxa-8,11,14-triazabicyclo[14.2.2]icosa-1(18),16,19-trien-13-yl]-1-hydroxy-3-phenylpropan-2-yl]carbamoyl}-2-methylpropyl]carbamate], the Ki in assay [2] was 19 nM; in assay [1], 7.9 nM.

For the origin of these results see BindingDB's records for doi:10.1021/jm950641i (Sandoz Research Institute, 1996).
